Assay type in all cases: biochemical
One assay deals with T1, Human PI3K beta (Homo sapiens, UniProt P42338).
T1 construct: His (N); host or cells: SF9 insect cells (baculovirus)
Put plainly: Human PI3K beta enzyme assay (HTRF). The following applies: concentration not given, b1387 states 1.1 μM for PI3K α and β; for inhibition at 1.1 µM: read-out: p110 beta Percent Inhibition. The essentials:
(§1)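 Compounds were mixed with 25 uM ATP, then with 3.5 uM di-C8 PI(4,5)P2 and His-tagged PI3K isoform (β 5.25 nM, δ 0.75 nM, γ 5 nM) at pH 7.00. After 30 min at room temperature, EDTA stopped the reaction and PIP3 was measured by HTRF over 1 h.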
A general note: In TR-FRET formats the signal depends on donor and acceptor labels being close together.

For the next assay, the target named is T2, Human PI3K alpha (Homo sapiens, UniProt P42336).
T2 construct: His (N); host or cells: SF9 insect cells (baculovirus)
T2 sequence (P42336 whole entry): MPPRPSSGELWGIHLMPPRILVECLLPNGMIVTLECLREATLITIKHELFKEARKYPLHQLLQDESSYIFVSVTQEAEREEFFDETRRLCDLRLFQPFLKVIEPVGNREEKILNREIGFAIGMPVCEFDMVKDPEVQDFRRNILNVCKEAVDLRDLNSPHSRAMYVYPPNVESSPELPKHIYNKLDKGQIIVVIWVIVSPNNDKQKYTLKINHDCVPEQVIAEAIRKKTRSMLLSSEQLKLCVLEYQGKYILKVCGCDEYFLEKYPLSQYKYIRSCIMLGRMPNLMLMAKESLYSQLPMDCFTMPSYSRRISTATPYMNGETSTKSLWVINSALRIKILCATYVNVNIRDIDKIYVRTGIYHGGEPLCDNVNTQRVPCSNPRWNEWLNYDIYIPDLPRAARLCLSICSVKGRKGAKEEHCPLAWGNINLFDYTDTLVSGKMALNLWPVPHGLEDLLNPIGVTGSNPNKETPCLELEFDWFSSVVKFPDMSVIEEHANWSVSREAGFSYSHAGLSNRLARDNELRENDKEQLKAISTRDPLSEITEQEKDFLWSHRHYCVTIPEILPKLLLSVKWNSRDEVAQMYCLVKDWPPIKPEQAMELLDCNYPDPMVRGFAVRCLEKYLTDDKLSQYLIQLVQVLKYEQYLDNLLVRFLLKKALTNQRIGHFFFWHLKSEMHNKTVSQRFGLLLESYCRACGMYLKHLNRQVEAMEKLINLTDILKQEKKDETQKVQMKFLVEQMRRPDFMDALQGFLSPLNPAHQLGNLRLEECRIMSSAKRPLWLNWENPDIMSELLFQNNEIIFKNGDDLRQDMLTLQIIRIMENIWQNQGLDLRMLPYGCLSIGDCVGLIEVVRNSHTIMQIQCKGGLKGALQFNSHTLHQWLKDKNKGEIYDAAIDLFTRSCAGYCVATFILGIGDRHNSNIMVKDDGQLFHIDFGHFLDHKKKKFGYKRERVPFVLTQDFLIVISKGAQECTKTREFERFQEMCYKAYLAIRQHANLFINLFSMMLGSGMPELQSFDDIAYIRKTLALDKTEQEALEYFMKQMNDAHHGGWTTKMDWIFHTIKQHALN
T2 sequence (P27986 whole entry partner): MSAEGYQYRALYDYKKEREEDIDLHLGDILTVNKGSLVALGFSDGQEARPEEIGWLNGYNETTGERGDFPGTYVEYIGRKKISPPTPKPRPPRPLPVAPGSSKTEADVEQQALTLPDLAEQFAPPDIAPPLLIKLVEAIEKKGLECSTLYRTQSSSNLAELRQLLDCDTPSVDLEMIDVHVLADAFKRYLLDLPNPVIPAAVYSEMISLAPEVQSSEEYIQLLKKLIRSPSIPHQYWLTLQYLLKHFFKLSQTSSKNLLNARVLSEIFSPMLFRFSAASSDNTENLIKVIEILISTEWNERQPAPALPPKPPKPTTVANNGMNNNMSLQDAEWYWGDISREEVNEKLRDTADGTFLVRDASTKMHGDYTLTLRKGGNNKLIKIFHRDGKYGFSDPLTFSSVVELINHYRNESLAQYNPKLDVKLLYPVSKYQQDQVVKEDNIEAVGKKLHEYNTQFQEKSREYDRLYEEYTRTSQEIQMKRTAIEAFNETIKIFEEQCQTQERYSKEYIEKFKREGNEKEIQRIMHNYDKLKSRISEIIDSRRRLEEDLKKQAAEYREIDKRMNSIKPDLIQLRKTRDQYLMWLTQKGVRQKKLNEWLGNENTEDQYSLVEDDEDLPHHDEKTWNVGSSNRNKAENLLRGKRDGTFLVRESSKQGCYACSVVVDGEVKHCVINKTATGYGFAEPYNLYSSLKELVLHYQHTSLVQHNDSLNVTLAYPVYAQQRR
Put plainly: Human PI3K alpha enzyme assay (HTRF). The following applies: concentration not given, b1387 states 1.1 μM for PI3K α and β; for inhibition at 1.1 µM: read-out: p110 alpha Percent Inhibition.

The target of the next assay is T3, Human PI3K gamma (Homo sapiens, UniProt P48736).
T3 construct: His (N); host or cells: SF9 insect cells (baculovirus)
T3 sequence (P48736 whole entry): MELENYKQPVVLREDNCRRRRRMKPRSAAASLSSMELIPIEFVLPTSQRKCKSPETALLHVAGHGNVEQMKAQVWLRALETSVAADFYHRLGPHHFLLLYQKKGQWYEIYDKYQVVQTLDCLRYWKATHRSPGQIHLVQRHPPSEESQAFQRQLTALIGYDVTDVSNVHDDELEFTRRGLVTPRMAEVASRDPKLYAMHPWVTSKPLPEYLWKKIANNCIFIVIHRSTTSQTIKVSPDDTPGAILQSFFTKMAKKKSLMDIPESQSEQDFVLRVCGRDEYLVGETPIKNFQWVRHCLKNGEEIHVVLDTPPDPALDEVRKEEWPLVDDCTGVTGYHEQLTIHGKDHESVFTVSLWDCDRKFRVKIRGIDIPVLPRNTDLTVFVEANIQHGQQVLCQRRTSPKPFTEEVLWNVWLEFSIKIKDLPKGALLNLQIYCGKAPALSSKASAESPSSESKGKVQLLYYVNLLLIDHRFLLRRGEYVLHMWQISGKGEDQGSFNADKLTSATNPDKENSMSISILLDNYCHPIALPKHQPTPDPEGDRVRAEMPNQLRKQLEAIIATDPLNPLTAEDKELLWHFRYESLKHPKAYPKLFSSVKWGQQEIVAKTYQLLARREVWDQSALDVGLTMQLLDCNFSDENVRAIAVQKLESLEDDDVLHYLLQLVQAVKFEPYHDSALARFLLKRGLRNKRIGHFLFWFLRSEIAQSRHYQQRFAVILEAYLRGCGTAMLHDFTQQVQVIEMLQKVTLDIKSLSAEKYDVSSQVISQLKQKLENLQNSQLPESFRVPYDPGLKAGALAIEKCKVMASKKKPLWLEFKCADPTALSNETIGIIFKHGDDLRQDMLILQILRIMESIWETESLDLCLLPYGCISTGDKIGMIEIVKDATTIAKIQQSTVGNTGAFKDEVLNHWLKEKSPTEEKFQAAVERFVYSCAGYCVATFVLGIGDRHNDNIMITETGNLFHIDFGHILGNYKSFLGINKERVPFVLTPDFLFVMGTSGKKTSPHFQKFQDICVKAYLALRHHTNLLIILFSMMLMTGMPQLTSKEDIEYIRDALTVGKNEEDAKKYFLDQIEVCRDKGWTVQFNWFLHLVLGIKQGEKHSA
Put plainly: Human PI3K gamma enzyme assay (HTRF). The following applies: concentration not given, b1389 states 1.0 μM for PI3K δ and γ; for inhibition at 1 µM: read-out: p110 gamma Percent Inhibition. The gist of the method: as §1

The target of a further assay is T4, Human PI3K delta (Homo sapiens, UniProt O00329).
T4 construct: His (N); host or cells: SF9 insect cells (baculovirus)
T4 sequence (O00329 whole entry): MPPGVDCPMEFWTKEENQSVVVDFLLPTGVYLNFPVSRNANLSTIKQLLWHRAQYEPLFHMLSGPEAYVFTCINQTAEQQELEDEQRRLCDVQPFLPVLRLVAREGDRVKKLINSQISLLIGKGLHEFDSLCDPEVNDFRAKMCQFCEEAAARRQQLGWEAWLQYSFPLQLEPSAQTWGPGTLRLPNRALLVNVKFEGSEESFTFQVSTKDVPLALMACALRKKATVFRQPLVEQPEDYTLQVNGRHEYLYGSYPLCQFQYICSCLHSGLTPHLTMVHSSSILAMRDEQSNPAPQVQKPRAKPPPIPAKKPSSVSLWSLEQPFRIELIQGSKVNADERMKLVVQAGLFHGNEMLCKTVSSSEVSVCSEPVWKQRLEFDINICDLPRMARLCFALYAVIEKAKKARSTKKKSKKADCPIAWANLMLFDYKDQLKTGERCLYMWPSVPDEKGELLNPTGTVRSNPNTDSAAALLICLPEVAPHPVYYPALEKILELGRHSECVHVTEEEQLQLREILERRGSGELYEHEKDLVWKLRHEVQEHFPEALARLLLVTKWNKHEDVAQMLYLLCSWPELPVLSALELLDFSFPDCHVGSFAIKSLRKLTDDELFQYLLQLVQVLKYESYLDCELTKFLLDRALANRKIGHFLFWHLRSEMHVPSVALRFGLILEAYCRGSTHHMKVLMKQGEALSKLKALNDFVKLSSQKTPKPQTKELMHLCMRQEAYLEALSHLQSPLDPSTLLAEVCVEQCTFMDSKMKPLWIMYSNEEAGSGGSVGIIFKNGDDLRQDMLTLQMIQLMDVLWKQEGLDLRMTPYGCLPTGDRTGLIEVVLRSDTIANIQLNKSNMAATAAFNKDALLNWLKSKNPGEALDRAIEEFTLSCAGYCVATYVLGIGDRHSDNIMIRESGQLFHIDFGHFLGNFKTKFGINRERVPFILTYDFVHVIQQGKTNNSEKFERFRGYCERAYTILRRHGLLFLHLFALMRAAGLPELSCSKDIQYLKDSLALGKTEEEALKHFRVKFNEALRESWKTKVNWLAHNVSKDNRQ
T4 sequence (P27986 whole entry partner): as the sequence (P27986 whole entry partner) above
Description: Human PI3K delta enzyme assay (HTRF). As to conditions: concentration not given, b1389 states 1.0 μM for PI3K δ and γ; for inhibition at 1 µM: read-out: p110 delta Percent Inhibition. The essentials:
as §1

T1 sequence (P42338 whole entry): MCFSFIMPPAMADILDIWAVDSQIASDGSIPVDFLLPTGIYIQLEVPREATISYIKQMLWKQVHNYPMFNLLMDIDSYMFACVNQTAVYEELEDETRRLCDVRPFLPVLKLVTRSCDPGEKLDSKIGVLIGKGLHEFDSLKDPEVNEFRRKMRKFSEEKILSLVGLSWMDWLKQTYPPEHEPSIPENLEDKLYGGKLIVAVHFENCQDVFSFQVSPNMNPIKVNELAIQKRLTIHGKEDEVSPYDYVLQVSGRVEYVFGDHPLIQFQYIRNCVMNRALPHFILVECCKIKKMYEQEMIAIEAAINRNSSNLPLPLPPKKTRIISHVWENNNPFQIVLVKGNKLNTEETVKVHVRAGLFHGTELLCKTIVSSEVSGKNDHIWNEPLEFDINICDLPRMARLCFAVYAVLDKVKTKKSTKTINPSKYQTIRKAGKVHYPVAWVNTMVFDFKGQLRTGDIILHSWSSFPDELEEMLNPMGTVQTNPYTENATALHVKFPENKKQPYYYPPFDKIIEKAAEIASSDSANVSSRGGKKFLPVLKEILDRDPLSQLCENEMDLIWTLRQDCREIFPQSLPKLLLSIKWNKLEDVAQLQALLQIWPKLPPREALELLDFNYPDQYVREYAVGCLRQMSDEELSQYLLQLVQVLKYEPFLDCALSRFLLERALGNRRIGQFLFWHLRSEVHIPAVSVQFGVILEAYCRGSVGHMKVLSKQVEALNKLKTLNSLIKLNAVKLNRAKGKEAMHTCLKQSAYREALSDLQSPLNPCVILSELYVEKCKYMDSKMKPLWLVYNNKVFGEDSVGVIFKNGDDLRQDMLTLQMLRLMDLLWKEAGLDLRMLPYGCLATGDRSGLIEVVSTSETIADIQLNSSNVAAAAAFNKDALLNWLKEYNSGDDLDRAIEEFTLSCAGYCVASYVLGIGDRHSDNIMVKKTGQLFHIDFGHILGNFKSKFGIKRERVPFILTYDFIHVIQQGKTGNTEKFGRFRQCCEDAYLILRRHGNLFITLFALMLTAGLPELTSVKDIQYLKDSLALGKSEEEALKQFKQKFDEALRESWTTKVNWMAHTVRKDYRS
T1 sequence (P27986 whole entry partner): as the sequence (P27986 whole entry partner) above

For `O=C(O)c1sc(N2CCOCC2)nc1Cc1ccc2cc[nH]c2c1` [Compound 328], the inhibition at 1.1 µM on Human PI3K beta turned out to be 98%; at Human PI3K alpha it was 11%. Also, the inhibition at 1 µM at Human PI3K gamma worked out at 48%; on Human PI3K delta, 83%.

With `O=C(O)c1sc(N2CCOCC2)nc1Cc1ccc2cnccc2c1` [Compound 292], the inhibition at 1.1 µM was determined as 82% on Human PI3K beta and 4% on Human PI3K alpha. In addition, the inhibition at 1 µM at Human PI3K gamma was 6%; at Human PI3K delta it was 56%.

Regarding `CN(C)C(c1ccc(Cl)c(Cl)c1)c1c(C(=O)O)sc(N2CCOCC2)c1C#N` (centres unmarked) [Compound 336], on Human PI3K beta, the “p110 beta Percent Inhibition” value was 90%. On Human PI3K alpha, the “p110 alpha Percent Inhibition” value is listed as 16%. In addition, at Human PI3K gamma, the “p110 gamma Percent Inhibition” value turned out to be 10%. At Human PI3K delta, the “p110 delta Percent Inhibition” value is listed as 49%.

`CS(=O)(=O)NC(c1ccc(Cl)cc1)c1c(C(=O)O)sc(N2CCOCC2)c1C#N` (centres unmarked) [Compound 317]: the figures for the inhibition at 1.1 µM on Human PI3K beta and on Human PI3K alpha were 77% and 20%, respectively. The inhibition at 1 µM was 29% at Human PI3K gamma and 70% on Human PI3K delta.

In the case of `CC(=O)Nc1cc(-c2sc(-c3nnc[nH]3)c([S+]([O-])c3ccc(Cl)cc3)c2C#N)ccn1` (centres unmarked) [Compound 131, N-{4-[4-[(4-chlorophenyl)sulfinyl]-3-cyano-5-(4H-1,2,4-triazol-3-yl)-2-thienyl]pyridin-2-yl}acetamide], the values for the inhibition at 1.1 µM at Human PI3K beta and on Human PI3K alpha were 78% and 75%, respectively. The inhibition at 1 µM at Human PI3K gamma stood at 5%; on Human PI3K delta, 80%.

As for `CN[C@H]1CCN(C(c2ccc(Cl)cc2)c2cc(-c3ccnc(NC(C)=O)c3)sc2-c2nnc[nH]2)C1` (some centres unmarked) [Compound 163], the inhibition at 1.1 µM on Human PI3K beta stood at 110%; at Human PI3K alpha, 97%. For the same molecule, the inhibition at 1 µM on Human PI3K gamma turned out to be 25%; at Human PI3K delta, 106%.

In the case of `CC(=O)Nc1cc(-c2cc(C(NCCN(C)C)c3ccc(Cl)cc3)c(-c3nnc[nH]3)s2)ccn1` (centres unmarked) [Compound 184], the inhibition at 1.1 µM was found to be 112% on Human PI3K beta and 76% at Human PI3K alpha. The inhibition at 1 µM at Human PI3K gamma came to 16%; at Human PI3K delta, 112%.

In the case of `Cc1n[nH]c(C)c1-c1sc(-c2ccncc2)nc1Cc1ccc(Cl)cc1` [Compound 183], the inhibition at 1.1 µM at Human PI3K beta was 16%; at Human PI3K alpha, -2%. In addition, the results for the inhibition at 1 µM on Human PI3K gamma and at Human PI3K delta were 3% and 9%, respectively.

With `CC(=O)Nc1cc(-c2cc([C@@H](c3ccc(Cl)cc3)N3CCC3)c(-c3nnc[nH]3)s2)ccn1` (single isomer, unassigned) [Compound 176], the inhibition at 1.1 µM stood at 109% at Human PI3K beta and 76% on Human PI3K alpha. Further, the inhibition at 1 µM on Human PI3K gamma was 35%; on Human PI3K delta it was 109%.

Turning to `N#Cc1c(N2CCOCC2)sc(C(=O)O)c1C(CCO)c1ccc2ccccc2c1` (centres unmarked) [Compound 313], the inhibition at 1.1 µM on Human PI3K beta turned out to be 117%. Further, the “p110 alpha Percent Inhibition” value on Human PI3K alpha is on record as 73%. For the same molecule, the “p110 gamma Percent Inhibition” value at Human PI3K gamma is reported as 30%. For the same molecule, on Human PI3K delta, the inhibition at 1 µM was 86%.

For the molecule `CC(=O)Nc1cc(-c2sc(-c3nnc[nH]3)c(C(O)c3ccc4ccccc4n3)c2C#N)ccn1` (centres unmarked) [Compound 153], the inhibition at 1.1 µM at Human PI3K beta is 84%; on Human PI3K alpha, 75%. The inhibition at 1 µM on Human PI3K gamma worked out at 11%; at Human PI3K delta, 87%.

For `CC(=O)Nc1cc(-c2cc(C(OCC3CCCC3)c3ccc(Cl)cc3)c(-c3nnc[nH]3)s2)ccn1` (centres unmarked) [Compound 173], the inhibition at 1.1 µM on Human PI3K beta is 67%; on Human PI3K alpha, 69%. Moreover, the inhibition at 1 µM on Human PI3K gamma is 3%; on Human PI3K delta, 83%.

On to `CN(C)C(c1ccc(Cl)cc1)c1c(C(=O)O)sc(N2CCOCC2)c1C#N` (centres unmarked) [Compound 351], for which the inhibition at 1.1 µM on Human PI3K beta stood at 82%; on Human PI3K alpha, 15%. The inhibition at 1 µM at Human PI3K gamma worked out at 46%; on Human PI3K delta, 79%.

For the molecule `CC(=O)Nc1cc(-c2cc(C(c3ccc(Cl)cc3)N3CCC3)c(-c3nnc[nH]3)s2)ccn1` (centres unmarked) [Compound 151], the inhibition at 1.1 µM was 105% on Human PI3K beta and 72% on Human PI3K alpha. In addition, the inhibition at 1 µM stood at 17% at Human PI3K gamma and 108% on Human PI3K delta.

Regarding `OC(c1ccc(F)cc1F)c1cc(-c2ccncc2)sc1-c1nnc[nH]1` (centres unmarked) [Compound 162], the results for the inhibition at 1.1 µM at Human PI3K beta and on Human PI3K alpha were 93% and 38%, respectively. Further, the inhibition at 1 µM was found to be 33% at Human PI3K gamma and 83% at Human PI3K delta.

As to `OC(c1ccc(Br)o1)c1cc(-c2ccncc2)sc1-c1nnc[nH]1` (centres unmarked) [Compound 260], the inhibition at 1.1 µM is 74% at Human PI3K beta and 37% on Human PI3K alpha. Further, the inhibition at 1 µM stood at 6% at Human PI3K gamma and 37% at Human PI3K delta.

As for `COC(=O)NC(c1ccc2ccccc2c1)c1c(C(=O)O)sc(N2CCOCC2)c1C#N` (centres unmarked) [Compound 354], the inhibition at 1.1 µM at Human PI3K beta was found to be 111%; at Human PI3K alpha, 89%. The inhibition at 1 µM worked out at 40% at Human PI3K gamma and 99% at Human PI3K delta.

For the molecule `CC(C)(C)[S+]([O-])NC(c1ccc(Cl)c(Cl)c1)c1c(C(=O)O)sc(N2CCOCC2)c1C#N` (centres unmarked) [Compound 342], the results for the inhibition at 1.1 µM on Human PI3K beta and at Human PI3K alpha were 80% and 34%, respectively. The inhibition at 1 µM on Human PI3K gamma worked out at 12%; on Human PI3K delta, 97%.

As for `COc1cc(C(O)c2cc(-c3ccncc3)sc2-c2ncn[nH]2)c(F)cc1Cl` (centres unmarked) [Compound 186], the inhibition at 1.1 µM was determined as 109% at Human PI3K beta and 68% on Human PI3K alpha. Also, the inhibition at 1 µM at Human PI3K gamma amounted to 65%; at Human PI3K delta, 92%.

In the case of `N#Cc1c(-c2ccnnc2)sc(-c2nnc[nH]2)c1C(O)c1ccc2ccccc2c1` (centres unmarked) [Compound 198], the inhibition at 1.1 µM at Human PI3K beta came to 108%; on Human PI3K alpha it was 18%. Besides, the inhibition at 1 µM turned out to be 35% at Human PI3K gamma and 70% at Human PI3K delta.

In the case of `O=C(O)c1sc(N2CCOCC2)nc1Cc1cc2cc(Br)ccc2s1` [Compound 303], the values for the inhibition at 1.1 µM on Human PI3K beta and on Human PI3K alpha were 110% and 99%, respectively. In addition, the inhibition at 1 µM at Human PI3K gamma amounted to 69%; at Human PI3K delta it was 115%.

In the case of `CC(=O)Nc1cc(-c2cc([C@H](c3ccc(Cl)cc3)N3CCC3)c(-c3nnc[nH]3)s2)ccn1` (single isomer, unassigned) [Compound 241], the inhibition at 1.1 µM on Human PI3K beta turned out to be 107%; at Human PI3K alpha, 59%. Also, the inhibition at 1 µM at Human PI3K gamma stood at 27%; at Human PI3K delta, 104%.

Consider `CC(=O)Nc1cc(-c2cc(C(NCC3CCCC3)c3ccc(Cl)cc3)c(-c3nnc[nH]3)s2)ccn1` (centres unmarked) [Compound 240], for which the inhibition at 1.1 µM at Human PI3K beta is 79%; on Human PI3K alpha, 52%. The inhibition at 1 µM at Human PI3K gamma was found to be 8%; at Human PI3K delta it was 98%.

On to `CC(=O)Nc1cc(-c2cc(C(c3ccc(Cl)cc3)N3CCOCC3)c(-c3nnc[nH]3)s2)ccn1` (centres unmarked) [Compound 248], for which the inhibition at 1.1 µM on Human PI3K beta was found to be 106%; on Human PI3K alpha, 89%. Besides, the inhibition at 1 µM on Human PI3K gamma turned out to be 35%; at Human PI3K delta, 109%.

Regarding `N#Cc1c(N2CCOCC2)sc(C(=O)O)c1Cc1ccc2cc(F)ccc2c1` [Compound 315], the inhibition at 1.1 µM amounted to 110% on Human PI3K beta and 97% at Human PI3K alpha. Moreover, the inhibition at 1 µM worked out at 75% at Human PI3K gamma and 114% on Human PI3K delta.

For `N#Cc1ccc2ccc(Cc3nc(N4CCOCC4)sc3C(=O)O)cc2c1` [Compound 325], the inhibition at 1.1 µM at Human PI3K beta worked out at 89%; on Human PI3K alpha, 17%. The inhibition at 1 µM stood at 22% at Human PI3K gamma and 89% at Human PI3K delta.

Consider `OC(c1ccccc1C(F)(F)F)c1cc(-c2ccncc2)sc1-c1nnc[nH]1` (centres unmarked) [Compound 193], for which the inhibition at 1.1 µM was 69% on Human PI3K beta and 26% on Human PI3K alpha. Also, the inhibition at 1 µM on Human PI3K gamma amounted to 13%; on Human PI3K delta, 46%.

For the molecule `O=C(O)c1sc(N2CCOCC2)c(F)c1Cc1ccc(Cl)c(Cl)c1` [Compound 320, 3-(3,4-dichlorobenzyl)-4-fluoro-5-morpholinothiophene-2-carboxylic acid], the inhibition at 1.1 µM is 94% at Human PI3K beta and 16% on Human PI3K alpha. Besides, the inhibition at 1 µM amounted to 35% at Human PI3K gamma and 97% on Human PI3K delta.

Turning to `O=C(O)c1sc(N2CCOCC2)nc1Cc1ccc2ccccc2c1F` [Compound 319], the inhibition at 1.1 µM was found to be 105% on Human PI3K beta and 59% at Human PI3K alpha. For the same molecule, the inhibition at 1 µM amounted to 50% on Human PI3K gamma and 113% at Human PI3K delta.

For the molecule `OC(c1ccc2c(c1)OC(F)(F)O2)c1cc(-c2ccncc2)sc1-c1nnc[nH]1` (centres unmarked) [Compound 134], the results for the inhibition at 1.1 µM at Human PI3K beta and on Human PI3K alpha were 72% and 21%, respectively. The inhibition at 1 µM at Human PI3K gamma is 8%; at Human PI3K delta, 44%.

`OC(c1ccc2ccccc2n1)c1cc(-c2ccncc2)sc1-c1nnc[nH]1` (centres unmarked) [Compound 171]: the inhibition at 1.1 µM at Human PI3K beta was determined as 106%; at Human PI3K alpha, 59%. Also, the values for the inhibition at 1 µM on Human PI3K gamma and on Human PI3K delta were 60% and 99%, respectively.

For `CC(=O)Nc1cc(-c2nc(Cc3ccc4ccccc4c3)c(-c3nnc[nH]3)s2)ccn1` [Compound 213], the inhibition at 1.1 µM is 80% on Human PI3K beta and 57% at Human PI3K alpha. Besides, the inhibition at 1 µM at Human PI3K gamma came out at 35%; on Human PI3K delta, 109%.
